This note sets out measurements from publication PMC4890880 (ACS infectious diseases, 2016).

Read-outs that look alike come from different tables or passages of the source.

In one assay the test system is HepG2-A16-CD81EGFP cells. The following applies: for IC50: read-out: Tox_IC50, HepG2 cytotoxicity.
Assay [1] concerns Plasmodium berghei (Pb-Luc) exoerythrocytic-stage parasites. The note with it: for normalized signal at concentration 0.000508053 / normalized signal at concentration 0.00152416 / normalized signal at concentration 0.00457247 / normalized signal at concentration 0.0137174 / normalized signal at concentration 0.0411523 / normalized signal at concentration 0.123457 / normalized signal at concentration 0.37037 / normalized signal at concentration 1.11111 / normalized signal at concentration 3.33333 / normalized signal at concentration 10: fraction of control; for IC50: read-out: PbLuc_IC50.

[2] abbreviates: sheet 2nd round, maximal inhibition in dose response.
Where [3] appears, read: second series of columns (replicate).

Consider `COc1cccc(S(=O)(=O)N2CCCCN3[C@H](CO)[C@H](c4ccc(C#CCC(C)C)cc4)[C@H]3C2)c1` [BRD-K69197522-001-01-4], for which the IC50 in the assay with HepG2-A16-CD81EGFP cells (sheet 2nd round) is greater than 10 µM. For the same compound, in the assay with HepG2-A16-CD81EGFP cells (setting [2]), the “Tox_max_inhibition (%)” value is 6.65%. In addition, in assay [1] (first series of columns), the “normalized signal at concentration 0.000508053” value turned out to be 0.7703, the “normalized signal at concentration 0.00152416” value is listed as 0.9681, the “normalized signal at concentration 0.00457247” value is 1.135 and the “normalized signal at concentration 0.0137174” value amounted to 0.9046. For the same compound, in assay [1] (first series of columns), the “normalized signal at concentration 0.0411523” value came out at 0.9718, the “normalized signal at concentration 0.123457” value was 0.7468, the “normalized signal at concentration 0.37037” value is recorded as 1.034 and the “normalized signal at concentration 1.11111” value turned out to be 0.9136. For the same compound, in assay [1] (first series of columns), the “normalized signal at concentration 3.33333” value turned out to be 0.9728 and the “normalized signal at concentration 10” value was 0.6517. Moreover, the IC50 in assay [1] (sheet 2nd round, Pb-Luc exoerythrocytic stage, 10-point dose response, top concentration 10) was greater than 10 µM. Further, in assay [1] (setting [3]), the “normalized signal at concentration 0.000508053” value was determined as 0.9237, the “normalized signal at concentration 0.00152416” value stood at 0.8984, the “normalized signal at concentration 0.00457247” value was 1.009 and the “normalized signal at concentration 0.0137174” value is 0.9117. Besides, in assay [1] (setting [3]), the “normalized signal at concentration 0.0411523” value was determined as 0.9735, the “normalized signal at concentration 0.123457” value turned out to be 1.068, the “normalized signal at concentration 0.37037” value stood at 0.8113 and the “normalized signal at concentration 1.11111” value stood at 0.8704. Also, in assay [1] (setting [3]), the “normalized signal at concentration 3.33333” value is on record as 1.117 and the “normalized signal at concentration 10” value is recorded as 0.6736. Besides, in assay [1] (setting [2]), the “PbLuc_max_inhibition (%)” value was determined as 35%.
On to `C[C@@H]1CCCCO[C@@H](CN(C)S(=O)(=O)c2ccc(F)cc2)[C@H](C)CN([C@H](C)CO)C(=O)c2cc(N(C)C)ccc2O1` [BRD-K17570530-001-01-5], for which, in the assay on HepG2-A16-CD81EGFP cells (sheet "2nd round"), the IC50 is greater than 10 µM and the “Tox_max_inhibition (%)” value was determined as 4.52%. In addition, the “normalised signal at concentration 0.000508053 (first series)” value in assay [1] (concentration 0.000508053, first series) is on record as 0.9121. The “normalised signal at concentration 0.000508053 (second series)” value in assay [1] (concentration 0.000508053, second series) was found to be 0.9459. In addition, in assay [1] (concentration 0.00152416, first series), the “normalised signal at concentration 0.00152416 (first series)” value is on record as 0.7511. For the same compound, the “normalised signal at concentration 0.00152416 (second series)” value in assay [1] (concentration 0.00152416, second series) amounted to 0.8649. In assay [1] (concentration 0.00457247, first series), the “normalised signal at concentration 0.00457247 (first series)” value came to 0.9449. For the same compound, the “normalised signal at concentration 0.00457247 (second series)” value in assay [1] (concentration 0.00457247, second series) turned out to be 0.9685. Further, the “normalised signal at concentration 0.0137174 (first series)” value in assay [1] (concentration 0.0137174, first series) is recorded as 0.964. In addition, the “normalised signal at concentration 0.0137174 (second series)” value in assay [1] (concentration 0.0137174, second series) was determined as 0.9508. For the same compound, in assay [1] (concentration 0.0411523, first series), the “normalised signal at concentration 0.0411523 (first series)” value turned out to be 1.052. Moreover, in assay [1] (concentration 0.0411523, second series), the “normalised signal at concentration 0.0411523 (second series)” value is recorded as 0.9313. The “normalised signal at concentration 0.123457 (first series)” value in assay [1] (concentration 0.123457, first series) came out at 1.16. In addition, in assay [1] (concentration 0.123457, second series), the “normalised signal at concentration 0.123457 (second series)” value was 0.9927. Besides, the “normalised signal at concentration 0.37037 (first series)” value in assay [1] (concentration 0.37037, first series) was determined as 0.8577. Also, in assay [1] (concentration 0.37037, second series), the “normalised signal at concentration 0.37037 (second series)” value is 0.9491. For the same compound, the “normalised signal at concentration 1.11111 (first series)” value in assay [1] (concentration 1.11111, first series) came to 0.9131. In assay [1] (concentration 1.11111, second series), the “normalised signal at concentration 1.11111 (second series)” value came out at 0.9395. The “normalised signal at concentration 3.33333 (first series)” value in assay [1] (concentration 3.33333, first series) is listed as 0.7629. Besides, the “normalised signal at concentration 3.33333 (second series)” value in assay [1] (concentration 3.33333, second series) amounted to 0.867. The “normalised signal at concentration 10 (first series)” value in assay [1] (concentration 10, first series of dose columns) amounted to 0.8313. In assay [1] (concentration 10, second series of dose columns), the “normalised signal at concentration 10 (second series)” value is given as 0.7644. Besides, the IC50 in assay [1] (sheet "2nd round", Broad compounds, dose response top concentration 10) is greater than 10 µM. The “PbLuc_max_inhibition (%)” value in assay [1] (sheet "2nd round") turned out to be 25%.
